What was measured:
[1] = target: T1, BSA (bovine serum albumin) (Bos taurus, UniProt P02769); test: tryptophan fluorescence quenching (excitation […] nm), Scatchard plot; type: binding; details: read-out: K(BSA) (converted)
T1 construct: gene ALB; commercial native serum albumin (Sigma-Aldrich), mature secreted protein, catalogue number not given

[2] = target: T2, HSA (human serum albumin) (Homo sapiens, UniProt P02768); test: as above; type: binding; details: read-out: K(HSA) (converted)
T2 construct: gene ALB; commercial serum albumin (Sigma-Aldrich), mature secreted protein, catalogue number not given
T2 sequence (P02768 25-609): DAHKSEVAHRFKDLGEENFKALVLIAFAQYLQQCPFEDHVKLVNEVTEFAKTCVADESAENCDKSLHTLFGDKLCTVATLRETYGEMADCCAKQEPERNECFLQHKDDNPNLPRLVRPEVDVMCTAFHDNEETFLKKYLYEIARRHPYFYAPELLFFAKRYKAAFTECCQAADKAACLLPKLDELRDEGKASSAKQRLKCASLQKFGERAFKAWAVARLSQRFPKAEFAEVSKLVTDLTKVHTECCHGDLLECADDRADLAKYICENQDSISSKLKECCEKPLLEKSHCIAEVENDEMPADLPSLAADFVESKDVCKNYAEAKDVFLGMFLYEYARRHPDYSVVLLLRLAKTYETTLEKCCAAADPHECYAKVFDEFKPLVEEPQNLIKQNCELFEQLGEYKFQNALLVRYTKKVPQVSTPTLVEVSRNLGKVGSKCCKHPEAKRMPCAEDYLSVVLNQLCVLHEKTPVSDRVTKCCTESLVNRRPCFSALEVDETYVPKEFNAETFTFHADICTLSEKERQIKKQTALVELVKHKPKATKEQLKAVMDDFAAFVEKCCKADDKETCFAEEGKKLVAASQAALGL

T1 sequence (P02769 25-607): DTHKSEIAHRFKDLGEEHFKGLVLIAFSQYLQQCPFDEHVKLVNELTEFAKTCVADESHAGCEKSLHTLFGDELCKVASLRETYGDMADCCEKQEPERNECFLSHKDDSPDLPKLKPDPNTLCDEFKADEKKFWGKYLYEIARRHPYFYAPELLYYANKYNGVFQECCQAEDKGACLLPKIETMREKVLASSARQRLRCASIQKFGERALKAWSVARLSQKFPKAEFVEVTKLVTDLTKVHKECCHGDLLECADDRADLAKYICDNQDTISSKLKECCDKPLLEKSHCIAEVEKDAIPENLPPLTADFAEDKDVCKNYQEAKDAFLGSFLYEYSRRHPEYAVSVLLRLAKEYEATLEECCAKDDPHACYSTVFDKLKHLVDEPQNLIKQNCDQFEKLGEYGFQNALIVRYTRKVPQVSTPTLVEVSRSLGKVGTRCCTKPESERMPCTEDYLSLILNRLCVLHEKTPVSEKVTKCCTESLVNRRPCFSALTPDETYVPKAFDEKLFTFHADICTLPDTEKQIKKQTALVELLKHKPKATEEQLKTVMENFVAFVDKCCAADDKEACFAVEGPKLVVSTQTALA

Kd [1]: 3.68 µM
Kd [2]: 3.7 µM
SMILES: O=C(O)c1ccccc1Nc1ccc(Br)cc1 [4′-Br-fenH]
